In the supplement of paper PMC11061612:

Tests used:
Experiment in all cases: combination Emax (second highest fraction inhibited in the dose matrix, 72 h); higher = more inhibition; extreme values may be limits of the assay
[1] = system: CL-11 (Colorectal Carcinoma)
Procedure, shortened: (§1)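 After 24 hours at 37°C and 5% CO2 in 1536-well plates, cells in DMEM/F12 or RPMI plus 10% FBS received two-drug dose matrices for 72 hours. Viability came from CellTiter-Glo 2.0 luminescence and was scaled as inhibition, anchored at 0 by vehicle wells and at 1 by blank wells. Combination Emax is taken as the second-highest inhibition in the matrix, and Bliss excess as the observed combination effect less EA + EB − EA·EB, with EA and EB the single-agent effects.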

NCI-H226 (Mesothelioma) = system: NCI-H226 (Mesothelioma)
Procedure, shortened: as §1

[2] = system: NCI-H1341 (Small Cell Lung Carcinoma)
Procedure, shortened: as §1

[3] = system: MOLT-13 (T-Lymphoblastic Leukemia)
Procedure, shortened: as §1

[4] = system: NCI-H3118 (Head and Neck Carcinoma)
Procedure, shortened: as §1

KALS-1 (Glioblastoma) = system: KALS-1 (Glioblastoma)
Procedure, shortened: as §1

IST-MEL1 (Melanoma) = system: IST-MEL1 (Melanoma)
Procedure, shortened: as §1

[5] = system: SiHa (Cervical Carcinoma)
Procedure, shortened: as §1

[6] = system: SKG-IIIa (Cervical Carcinoma)
Procedure, shortened: as §1

[7] = system: PL4 (Pancreatic Carcinoma)
Procedure, shortened: as §1

[8] = system: SK-CO-1 (Colorectal Carcinoma)
Procedure, shortened: as §1

[9] = system: KP-4 (Pancreatic Carcinoma)
Procedure, shortened: as §1

[10] = system: SAT (Head and Neck Carcinoma)
Procedure, shortened: as §1

GAK (Melanoma) = system: GAK (Melanoma)
Procedure, shortened: as §1

[11] = system: C-33-A (Cervical Carcinoma)
Procedure, shortened: as §1

[12] = system: MS-1 (Small Cell Lung Carcinoma)
Procedure, shortened: as §1

[13] = system: MOLP-8 (Plasma Cell Myeloma)
Procedure, shortened: as §1

[14] = system: HT-1080 (Other Solid Carcinomas)
Procedure, shortened: as §1

[15] = system: COR-L88 (Small Cell Lung Carcinoma)
Procedure, shortened: as §1

SMILES | combination Emax [1] | combination Emax (NCI-H226 (Mesothelioma)) | combination Emax [2] | combination Emax [3] | combination Emax [4] | combination Emax (KALS-1 (Glioblastoma)) | combination Emax (IST-MEL1 (Melanoma)) | combination Emax [5] | combination Emax [6] | combination Emax [7] | combination Emax [8] | combination Emax [9] | combination Emax [10] | combination Emax (GAK (Melanoma)) | combination Emax [11] | combination Emax [12] | combination Emax [13] | combination Emax [14] | combination Emax [15]
CS(=O)(=O)CCNCc1ccc(-c2ccc3ncnc(Nc4ccc(OCc5cccc(F)c5)c(Cl)c4)c3c2)o1 [Lapatinib] + C[C@@H](Oc1cc(-c2cnn(C3CCNCC3)c2)cnc1N)c1c(Cl)ccc(F)c1Cl [Crizotinib] (first compound max 10 µM, 7x7, partner max 10 µM) | 0.928 | 0.44 | 0.898 | 0.853 | 0.928 | 0.801 | 0.811 | 0.252 | 0.733 | 0.884 | 0.94 | 0.761 | 0.981 | 0.75 | 0.921 | 0.941 | 0.978 | 0.823 | 0.57
CC(=O)c1c(C)c2cnc(Nc3ccc(N4CCNCC4)cn3)nc2n(C2CCCC2)c1=O [Palbociclib] + CC1(C)CCC(CN2CCN(c3ccc(C(=O)NS(=O)(=O)c4ccc(NCC5CCOCC5)c([N+](=O)[O-])c4)c(Oc4cnc5[nH]ccc5c4)c3)CC2)=C(c2ccc(Cl)cc2)C1 [Venetoclax] (first compound max 10 µM, 7x7, partner max 1 µM) | 0.298 | 0.176 | 0.259 | 0.709 | 0.318 | 0.146 | 0.237 | 0.123 | 0.0106 | 0.184 | 0.43 | 0.383 | 0.353 | 0.205 | 0.354 | 0.303 | 0.538 | 0.143 | 0.331
CC(=O)c1c(C)c2cnc(Nc3ccc(N4CCNCC4)cn3)nc2n(C2CCCC2)c1=O [Palbociclib] + Cc1c2c(nn1C)CSCc1cc(n(C)n1)CSc1cc(c3ccccc3c1)OCCCc1c(C(=O)O)n(C)c3c-2c(Cl)ccc13 [AZD5991] (first compound max 10 µM, 7x7, partner max 1 µM) | 0.309 | 0.204 | 0.374 | 1 | 0.426 | 0.229 | 0.258 | 0.0939 | 0.146 | 0.263 | 0.455 | 0.412 | 0.821 | 0.369 | 0.467 | 0.609 | 1 | 0.0542 | 0.307
CC(=O)c1c(C)c2cnc(Nc3ccc(N4CCNCC4)cn3)nc2n(C2CCCC2)c1=O [Palbociclib] + Cn1cnc2c(F)c(Nc3ccc(Br)cc3Cl)c(C(=O)NOCCO)cc21 [Selumetinib] (first compound max 10 µM, 7x7, partner max 10 µM) | 0.864 | 0.232 | 0.254 | 0.721 | 0.603 | 0.432 | 0.401 | 0.16 | 0.188 | 0.523 | 0.858 | 0.509 | 0.549 | 0.697 | 0.457 | 0.416 | 0.553 | 0.361 | 0.223
C[C@@H](c1ccc2nccn2c1)n1nnc2ncc(-c3cnn(C)c3)nc21 [Savolitinib] + CC1(C)CCC(CN2CCN(c3ccc(C(=O)NS(=O)(=O)c4ccc(NCC5CCOCC5)c([N+](=O)[O-])c4)c(Oc4cnc5[nH]ccc5c4)c3)CC2)=C(c2ccc(Cl)cc2)C1 [Venetoclax] (first compound max 1 µM, 7x7, partner max 1 µM) | 0.09 | 0.17 | 0.392 | 0.467 | 0.115 | 0.113 | 0.124 | 0.137 | 0.12 | 0.125 | 0.0828 | 0.453 | 0.151 | 0.199 | 0.0882 | 0.155 | 0.0876 | 0.0906 | 0.207
C[C@@H](c1ccc2nccn2c1)n1nnc2ncc(-c3cnn(C)c3)nc21 [Savolitinib] + Cc1c2c(nn1C)CSCc1cc(n(C)n1)CSc1cc(c3ccccc3c1)OCCCc1c(C(=O)O)n(C)c3c-2c(Cl)ccc13 [AZD5991] (first compound max 1 µM, 7x7, partner max 1 µM) | 0.132 | 0.131 | 0.488 | 0.99 | 0.225 | 0.186 | 0.104 | 0.167 | 0.176 | 0.189 | 0.114 | 0.435 | 0.427 | 0.264 | 0.114 | 0.26 | 1 | 0.117 | 0.23
Cn1cnc2c(F)c(Nc3ccc(Br)cc3Cl)c(C(=O)NOCCO)cc21 [Selumetinib] + C=CCn1c(=O)c2cnc(Nc3ccc(N4CCN(C)CC4)cc3)nc2n1-c1cccc(C(C)(C)O)n1 [AZD1775] (first compound max 10 µM, partner max 1 µM) | 0.855 | 0.145 | 0.697 | 1 | 0.902 | 0.755 | 0.527 | 0.22 | 0.303 | 0.63 | 0.794 | 0.6 | 0.637 | 0.719 | 0.93 | 0.778 | 0.791 | 0.439 | 0.666
